Measurements from patent US5538882A, “Variant-type carbohydrate hydrolase, variant gene of the enzyme and method for producing oligosaccharide using the enzyme” (priority 1993, dated 1996).

Experiments:
Conditions in all cases: substrate 3KB-G5-CNP, hydrolysis
[1] = molecular target: T1, Saccharomycopsis fibuligera α-amylase (Sfamy), wild type (Saccharomycopsis fibuligera, UniProt P21567)
T1 sequence (P21567 27-494): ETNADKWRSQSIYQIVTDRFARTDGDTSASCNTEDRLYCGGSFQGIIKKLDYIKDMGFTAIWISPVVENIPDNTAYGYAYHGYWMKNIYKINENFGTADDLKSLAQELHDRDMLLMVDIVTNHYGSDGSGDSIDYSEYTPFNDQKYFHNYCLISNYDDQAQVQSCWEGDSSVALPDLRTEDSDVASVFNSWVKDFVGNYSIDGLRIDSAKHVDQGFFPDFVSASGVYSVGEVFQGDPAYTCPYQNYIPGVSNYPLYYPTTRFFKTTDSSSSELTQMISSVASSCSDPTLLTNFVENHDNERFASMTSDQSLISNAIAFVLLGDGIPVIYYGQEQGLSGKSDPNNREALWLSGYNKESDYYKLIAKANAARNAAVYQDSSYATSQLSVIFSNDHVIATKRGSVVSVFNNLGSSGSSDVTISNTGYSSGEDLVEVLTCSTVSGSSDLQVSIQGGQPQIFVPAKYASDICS
Description: (§1) Furthermore, using a substrate with both its non-reducing end terminus and its reducing end terminus modified, i.e. 3KB-G5 -CNP (chloronitrophenyl maltopentaose wherein the hydroxyl group at position 3 of the glucose residue at the non-reducing end terminus is ketobutylated; manufactured by Ono Pharmaceutical Company), the hydrolysis activities of the wild-type enzyme and the variant-type enzymes were determined. 3KB-G5 -CNP cannot function as a substrate for transglycosylation reaction because of the modification of both of the termini, and therefore, only the hydrolysis activity can be assayed.

[2] = molecular target: Saccharomycopsis fibuligera α-amylase (Sfamy) variant SfamyY83F, Y83F, SEQ ID NO: 2 (Saccharomycopsis fibuligera, UniProt P21567, A249P/Y109F)
Sequence of Saccharomycopsis fibuligera α-amylase (Sfamy) variant SfamyY83F, Y83F, SEQ ID NO: 2 (P21567 27-494 Y109F/A249P): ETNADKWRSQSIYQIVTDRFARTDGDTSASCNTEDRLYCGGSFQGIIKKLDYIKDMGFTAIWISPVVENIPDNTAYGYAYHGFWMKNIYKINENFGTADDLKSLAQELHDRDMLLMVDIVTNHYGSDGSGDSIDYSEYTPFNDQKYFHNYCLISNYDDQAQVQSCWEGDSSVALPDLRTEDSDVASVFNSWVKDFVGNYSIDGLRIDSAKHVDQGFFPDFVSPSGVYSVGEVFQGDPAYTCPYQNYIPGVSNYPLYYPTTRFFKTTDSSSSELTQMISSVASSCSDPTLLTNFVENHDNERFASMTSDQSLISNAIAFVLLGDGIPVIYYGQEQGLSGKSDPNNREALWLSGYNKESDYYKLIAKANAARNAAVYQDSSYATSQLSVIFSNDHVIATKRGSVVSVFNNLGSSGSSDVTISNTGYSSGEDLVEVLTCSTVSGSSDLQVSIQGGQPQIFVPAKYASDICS
Description: as §1

[3] = molecular target: Saccharomycopsis fibuligera α-amylase (Sfamy) variant SfamyY83W, Y83W, SEQ ID NO: 4 (Saccharomycopsis fibuligera, UniProt P21567, Y109W)
Sequence of Saccharomycopsis fibuligera α-amylase (Sfamy) variant SfamyY83W, Y83W, SEQ ID NO: 4 (P21567 27-494 Y109W): as the sequence (P21567 27-494 Y109F/A249P) above, with F83W, P223A counted along it
Description: as §1

[4] = molecular target: Saccharomycopsis fibuligera α-amylase (Sfamy) variant SfamyY83L, Y83L, SEQ ID NO: 6 (Saccharomycopsis fibuligera, UniProt P21567, Y109L)
Sequence of Saccharomycopsis fibuligera α-amylase (Sfamy) variant SfamyY83L, Y83L, SEQ ID NO: 6 (P21567 27-494 Y109L): as the sequence (P21567 27-494 Y109F/A249P) above, with F83L, P223A counted along it
Description: as §1

[5] = molecular target: Saccharomycopsis fibuligera α-amylase (Sfamy) variant SfamyY83N, Y83N, SEQ ID NO: 8 (Saccharomycopsis fibuligera, UniProt P21567, Y109N)
Sequence of Saccharomycopsis fibuligera α-amylase (Sfamy) variant SfamyY83N, Y83N, SEQ ID NO: 8 (P21567 27-494 Y109N): as the sequence (P21567 27-494 Y109F/A249P) above, with F83N, P223A counted along it
Description: as §1

**Q.** With `CC(=O)CC1OC[C@H]2O[C@H](O[C@H]3[C@H](O)[C@@H](O)[C@@H](O[C@H]4[C@H](O)[C@@H](O)[C@@H](O[C@H]5[C@H](O)[C@@H](O)[C@@H](O[C@H]6[C@H](O)[C@@H](O)[C@H](Oc7ccc([N+](=O)[O-])cc7Cl)O[C@@H]6CO)O[C@@H]5CO)O[C@@H]4CO)O[C@@H]3CO)[C@H](O)[C@@H](O)[C@@H]2O1` (stereo partly drawn) [3KB-G5 -CNP] as the compound, how does the Km [1] read?
**A.** 60 µM

**Q.** And the kcat [1]?
**A.** 15.3 s⁻¹

**Q.** And the kcat/Km [1]?
**A.** 250000 M⁻¹ s⁻¹

**Q.** And the Km [2]?
**A.** 130 µM

**Q.** What about the kcat [2] of the same compound?
**A.** 2.5 s⁻¹

**Q.** And the kcat/Km [2]?
**A.** 20000 M⁻¹ s⁻¹

**Q.** What about the Km [3] of the same compound?
**A.** 150 µM

**Q.** And the kcat [3]?
**A.** 2.17 s⁻¹

**Q.** What about the kcat/Km [3] of the same compound?
**A.** 14500 M⁻¹ s⁻¹

**Q.** And the Km [4]?
**A.** 120 µM

**Q.** And the kcat [4]?
**A.** 0.183 s⁻¹

**Q.** What about the kcat/Km [4] of the same compound?
**A.** 1550 M⁻¹ s⁻¹

**Q.** And the Km [5]?
**A.** 190 µM

**Q.** What about the kcat [5] of the same compound?
**A.** 0.267 s⁻¹

**Q.** What about the kcat/Km [5] of the same compound?
**A.** 1430 M⁻¹ s⁻¹
